Reference: patent US20030166202A1, “P450 Monooxygenases of the cyp79 family” (priority 2000, published 2003)

Experiments:
CYP79F1 = CYP79F1 (Arabidopsis thaliana, UniProt Q949U1, M2A); conditions: E. coli C43(DE3) spheroplasts, GC-MS or TLC
Experimental: In a typical enzyme assay, 5 μl spheroplasts and 4 μl NADPH:cytochrome P450 reductase (equivalent to 0.04 units defined as 1 μmol cytochrome c/min) are incubated with substrate in buffer containing 30 mM KPi, pH 7.5, 3 mM NADPH, 3 mM reduced glutathione, 0.042% Tween 80, 1 mg ml^−1 L-α-dilauroylphosphatidylcholine in a total volume of 30 μl. Reaction mixtures containing spheroplasts of E. coli C43(DE3) transformed with empty vector are used as controls in all assays. 3.3 μM L-[U-^14C]phenylalanine (453 mCi/mmol; Pharmacia), 3.7 μM L-[U-^14C]tyrosine (449 mCi/mmol; Pharmacia), 0.1 mM L-[methyl-^14C]methionine (56 mCi/mmol; Pharmacia), and 24 μM L-[side chain-3-^14C]tryptophan (56.5 mCi/mmol; NEN) are tested as potential substrates. After incubation at 28° C. for 1 hour, half of the reaction mixture is analyzed by TLC on Silica Gel 60 F254 sheets (Merck) using toluene/ethyl acetate 5:1 (v/v) as eluent. Radiolabelled bands are visualized and quantified using a STORM 840 phosphoimager (Pharmacia). For GC-MS analysis, 450 μl reaction mixture containing 3.3 mM L-methionine (Sigma), 3.3 mM DL-dihomomethionine or 3.3 mM DL-trihomomethionine, respectively, are incubated for 4 hours at 25° C. and extracted with a total volume of 600 μl CHCl3. The organic phase is collected, evaporated, and the residue is dissolved in 15 μl CHCl3 and analyzed by GC-MS. […] An SGE column (BPX5, 25 m×0.25 mm, 0.25 μm film thickness) is used (heat pressure 100 kPa, splitless injection). The oven temperature program is as follows: 80° C. for 3 minutes, 80° C. to 180° C. at 5° C. min^−1, 180° C. to 300° C. at 20° C. min^−1, and 300° C. for 10 min. The ion source is run in EI mode (70 eV) at 200° C. […] DL-dihomomethionine, DL-trihomomethionine, 5-methylthiopentanaldoxime and 6-methylthiohexanaldoxime are synthesized as described (Dawson et al, J. Biol. Chem. 268: 27154-27159, 1993) and authenticated by NMR spectroscopy.

CYP79D2 = molecular target: T1, CYP79D2 (Manihot esculenta, UniProt Q9M7B7); format: biochemical, cassava
T1 construct: made in house
T1 sequence (Q9M7B7 whole entry): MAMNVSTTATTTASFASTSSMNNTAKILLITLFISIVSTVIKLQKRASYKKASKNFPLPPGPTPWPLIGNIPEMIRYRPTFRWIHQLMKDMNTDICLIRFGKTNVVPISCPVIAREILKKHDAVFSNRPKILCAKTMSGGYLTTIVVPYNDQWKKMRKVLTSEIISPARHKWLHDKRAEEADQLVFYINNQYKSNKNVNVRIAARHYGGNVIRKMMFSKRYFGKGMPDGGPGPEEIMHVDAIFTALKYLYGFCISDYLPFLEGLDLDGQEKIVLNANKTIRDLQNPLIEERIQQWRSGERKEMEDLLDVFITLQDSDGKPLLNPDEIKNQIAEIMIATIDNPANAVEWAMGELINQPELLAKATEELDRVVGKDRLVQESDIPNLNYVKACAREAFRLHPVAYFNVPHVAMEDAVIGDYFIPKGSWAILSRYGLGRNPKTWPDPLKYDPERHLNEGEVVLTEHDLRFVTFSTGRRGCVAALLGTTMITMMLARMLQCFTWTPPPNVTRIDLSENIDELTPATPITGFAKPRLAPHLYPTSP
Experimental: Investigations into the substrate specificity of CYP79D1, CYP79D2, CYP79E1, CYP79E2, CYP79A2, CYP79B2, CYP79B5 and CYP79F1 are carried out in E. coli spheroplasts reconstituted with sorghum NADPH-cytochrome P450 oxidoreductase in the presence of high amounts of lipids. L-α-dioleyl phosphatidyl choline and L-α-dilauroyl phosphatidyl choline are preferred lipids for the reconstitution. […] Depending on the nature of the substrate, substrate specificity may also be determined using intact P. pastoris cells or intact E. coli cells.
The ability of a P450 monooxygenase to convert an aliphatic or aromatic amino acid or chain-elongated methionine homologue to the corresponding oxime can be tested in an assay (see also example 5) comprising
a) incubating a reaction mixture comprising the P450 monooxygenase of the present invention or spheroplasts of E.coli cells expressing said enzyme, the parent amino acid, NADPH, oxygen, NADPH-cytochrome P450 oxidoreductase and lipid at ambient temperature for a certain period of time which is between 2 min and 2 to 6 hours;
b) terminating the reaction for example by the addition of a denaturing compounds such as ethyl acetate; and
c) chemically identifying and quantifying the aldoxime produced.

CYP79A2 = molecular target: T2, CYP79A2 (Arabidopsis thaliana, UniProt Q9FLC8); assay: CYP79A2 activity in E. coli spheroplasts reconstituted with NADPH:cytochrome P450 oxidoreductase; conditions: TLC or GC-MS detection
T2 sequence (Q9FLC8 7-529 limits assumed): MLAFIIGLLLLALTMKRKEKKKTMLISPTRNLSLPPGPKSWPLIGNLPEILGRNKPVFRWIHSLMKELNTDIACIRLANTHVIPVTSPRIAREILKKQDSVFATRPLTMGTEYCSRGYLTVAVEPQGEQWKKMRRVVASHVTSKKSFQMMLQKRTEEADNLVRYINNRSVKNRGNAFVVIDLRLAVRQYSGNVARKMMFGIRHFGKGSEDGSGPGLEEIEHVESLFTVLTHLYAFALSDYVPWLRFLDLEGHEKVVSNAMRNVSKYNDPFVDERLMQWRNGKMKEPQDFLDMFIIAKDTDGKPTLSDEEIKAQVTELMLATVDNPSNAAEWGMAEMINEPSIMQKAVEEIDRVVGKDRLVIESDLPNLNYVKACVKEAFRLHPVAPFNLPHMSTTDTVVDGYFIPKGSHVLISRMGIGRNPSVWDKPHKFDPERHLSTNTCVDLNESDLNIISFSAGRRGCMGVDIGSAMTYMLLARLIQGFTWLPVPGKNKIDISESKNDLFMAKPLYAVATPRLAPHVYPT

CYP79B2 = molecular target: T3, CYP79B2 (Arabidopsis thaliana, UniProt O81346); assay: CYP79B2 activity in E. coli spheroplasts reconstituted with NADPH:cytochrome P450 reductase; conditions: radiolabelled amino acid, TLC
T3 sequence (O81346 1-541): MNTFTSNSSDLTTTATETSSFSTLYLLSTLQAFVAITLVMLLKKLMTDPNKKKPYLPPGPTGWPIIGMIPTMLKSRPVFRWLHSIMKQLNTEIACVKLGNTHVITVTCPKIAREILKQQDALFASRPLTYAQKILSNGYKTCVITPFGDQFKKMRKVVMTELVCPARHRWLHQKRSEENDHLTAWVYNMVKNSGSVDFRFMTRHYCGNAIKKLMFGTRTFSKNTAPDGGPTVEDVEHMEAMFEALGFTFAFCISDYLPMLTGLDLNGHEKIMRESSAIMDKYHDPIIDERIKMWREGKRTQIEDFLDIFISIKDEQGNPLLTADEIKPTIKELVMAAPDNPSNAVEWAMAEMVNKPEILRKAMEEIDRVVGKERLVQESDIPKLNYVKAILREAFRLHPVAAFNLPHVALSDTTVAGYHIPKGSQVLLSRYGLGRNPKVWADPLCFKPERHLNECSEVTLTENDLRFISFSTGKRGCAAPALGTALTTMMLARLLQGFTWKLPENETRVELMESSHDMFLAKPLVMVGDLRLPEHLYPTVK
Experimental: The activity of CYP79B2 is measured by reconstituting spheroplasts from E. coli expressing CYP79B2 with purified NADPH:cytochrome P450 reductase from Sorghum bicolor (L.) Moench. […] The reaction is incubated at 34° C. for 30 minutes, extracted two times with ethyl acetate and the ethyl acetate phase is analyzed by TLC using toluen:ethyl acetate 5:1 as eluent. Radiolabelled bands are visualized on a Storm 840 phosphorimager (Molecular Dynamics) and quantified with ImageQuant analysis software (Molecular Dynamics). Substrate specificity is investigated by substituting the ^14C-labelled tryptophan with ^14C-labelled tyrosine or phenylalanine. GC-MS is employed to verify the structure of the compound produced from tryptophan by recombinant CYP79B2. A 450 μl reaction mixture as described above containing 2 mM unlabelled tryptophan is incubated at 34° C. for 2 hours. The reaction mixture is extracted twice with 300 μl CHCl3 and lyophilized until dryness. GC-MS is performed with an HP5890 Series II gas chromatograph coupled to a Jeol JMS-AX505W mass spectrometer. Splitless injection on an SGE column (BPX5, 25 mm×0.25 mm, 0.25 μm film thickness) and a head pressure of 100 kPa are used.
Single colonies are grown overnight at 37° C. in LB medium containing 100 μg/ml ampicillin. 1 ml of the overnight culture is used to inoculate 75 ml TB medium containing 100 μg/ml ampicillin, 75 μg/ml δ-aminolevulinic acid, 1 mM thiamine and 1 mM IPTG. The TB cultures are grown for 44 hours at 125 rpm and 28° C.

CYP79F1, sequence (Q949U1 whole entry M2A): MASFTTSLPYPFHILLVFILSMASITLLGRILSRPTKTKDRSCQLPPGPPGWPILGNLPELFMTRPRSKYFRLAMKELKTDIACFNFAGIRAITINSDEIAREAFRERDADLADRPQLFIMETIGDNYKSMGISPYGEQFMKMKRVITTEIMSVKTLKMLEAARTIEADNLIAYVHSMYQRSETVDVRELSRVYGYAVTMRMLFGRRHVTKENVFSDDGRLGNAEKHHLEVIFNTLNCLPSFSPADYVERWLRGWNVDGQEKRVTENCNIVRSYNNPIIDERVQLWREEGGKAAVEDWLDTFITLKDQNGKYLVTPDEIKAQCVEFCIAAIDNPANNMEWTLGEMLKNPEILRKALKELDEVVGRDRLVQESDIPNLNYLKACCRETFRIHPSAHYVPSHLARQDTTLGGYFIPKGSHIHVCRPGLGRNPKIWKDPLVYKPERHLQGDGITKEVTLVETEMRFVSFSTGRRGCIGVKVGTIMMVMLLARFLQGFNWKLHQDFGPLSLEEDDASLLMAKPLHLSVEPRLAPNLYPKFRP

## N[C@@H](Cc1ccc(O)cc1)C(=O)O [L-tyrosine]
CYP79F1
  formation of the corresponding aldoxime by CYP79F1: did not result in the formation of detectable amounts of the corresponding aldoximes
CYP79D2
  conversion to the corresponding oxime by CYP79D2: Neither L-Leucine, L-phenylalanine nor L-tyrosine are metabolized
CYP79A2
  production of the respective aldoxime by CYP79A2: does not result in production of detectable amounts of the respective aldoximes
CYP79B2
  oxime production by CYP79B2: No oxime producing activity is detected
